Converted amounts (≈) assume the structure as drawn.
Legend:
[1] = test system: Candida albicans; test: Antifungal activity against Candida albicans by dilution method; type: functional
[2] = test system: Mycobacterium tuberculosis; test: Antimycobacterial activity against Mycobacterium tuberculosis H37Rv by MABA method; type: functional

Compound	MIC [1] [mg/L]	MIC90 [2] [mg/L]
NYSTATIN	100	–
O=C(/C=C/c1cccc([N+](=O)[O-])c1)c1ccc(N2C(=O)C(Br)=C(Br)C2=O)cc1	250 (≈ 494 µM)	200 (≈ 395 µM)
O=C(/C=C/c1ccc(Cl)cc1)c1ccc(N2C(=O)C(Br)=C(Br)C2=O)cc1	250 (≈ 504 µM)	100 (≈ 202 µM)
COC1=CC(=O)C[C@@H](C)[C@]12Oc1c(Cl)c(OC)cc(OC)c1C2=O [GRISEOFULVIN]	500 (≈ 1420 µM)	–
O=C(/C=C/c1ccccc1Cl)c1ccc(N2C(=O)C(Br)=C(Br)C2=O)cc1	1000 (≈ 2020 µM)	250 (≈ 504 µM)
O=C(/C=C/c1ccccc1)c1ccc(N2C(=O)C(Br)=C(Br)C2=O)cc1	250 (≈ 542 µM)	500 (≈ 1080 µM)
O=C(/C=C/c1ccc(O)cc1)c1ccc(N2C(=O)C(Br)=C(Br)C2=O)cc1	150 (≈ 314 µM)	60 (≈ 126 µM)
Cc1ccc(/C=C/C(=O)c2ccc(N3C(=O)C(Br)=C(Br)C3=O)cc2)cc1	1000 (≈ 2100 µM)	500 (≈ 1050 µM)
O=C(/C=C/c1ccc(Cl)cc1Cl)c1ccc(N2C(=O)C(Br)=C(Br)C2=O)cc1	500 (≈ 943 µM)	500 (≈ 943 µM)
COc1ccc(/C=C/C(=O)c2ccc(N3C(=O)C(Br)=C(Br)C3=O)cc2)cc1	1000 (≈ 2040 µM)	500 (≈ 1020 µM)
COc1ccc(/C=C/C(=O)c2ccc(N3C(=O)C(Br)=C(Br)C3=O)cc2)cc1OC	500 (≈ 959 µM)	500 (≈ 959 µM)
COc1ccc(/C=C/C(=O)c2ccc(N3C(=O)C(Br)=C(Br)C3=O)cc2)cc1[N+](=O)[O-]	1000 (≈ 1870 µM)	1000 (≈ 1870 µM)
NNC(=O)c1ccncc1 [ISONIAZID]	–	0.2 (≈ 1.46 µM)
O=C(/C=C/c1ccccc1O)c1ccc(N2C(=O)C(Br)=C(Br)C2=O)cc1	100 (≈ 210 µM)	50 (≈ 105 µM)
